We go through one substance from patent US5723439A (priority 1991, dated 1998).

The test system of this test is influenza A/Aichi/2/68 (H3N2) virus. The class given is in vivo, mice. Conditions: intraperitoneal 15,000 KIU/mouse/day, 5-6 injections daily for 7 days.

Turning to aprotinin, the “protective effect (survival)” value is reported as 30%.
